Measurements from patent US20250302040A1, “FUNGICIDAL COMBINATIONS OF FLUAZINAM AND USES THEREOF” (priority 2022, published 2025).
Values after ≈ are worked out from the molar mass of the structure shown.

Columns and labels:
[1] = test system: Zymoseptoria tritici; test: Microtiter plate (MTP) fungal growth assay, optical density, Wadley analysis; format: cell-based; details: single active ingredient, OD 590 nm after 5 days at 19° C.
[2] = test system: Phytophthora infestans; test: microbe, parasite or virus in culture; format: cell-based
[3] = test system: Venturia inaequalis; test: Apple scab control on apple leaves (incidence), Colby analysis; details: 27 days after application
Protocol: Here, efficacy or percent inhibition is determined in %.
Efficacy of the fungicidal compositions is evaluated with reference to a scale of 0 to 100% in comparison with untreated control plots. 0 means no control and 100 means complete control of the target disease.
The experiments were conducted by applying commercially available formulations of Fluazinam and other mixture partners, alone or with their tank-mixed compositions. The compositions were diluted with water.
Each formulation with active ingredient is diluted with water and biological efficacy trials on target fungi are conducted.

[4] = Fluazinam 350 g/ha, Fluxapyroxad 75 g/ha, mixture 350 + 75 g/ha

Row | Structure (SMILES) | EC50 observed [1] | Observed % control (O) [3, 4] | also measured
1 | Cc1ccc(C(=O)OCc2ccc(Oc3ccccc3)cc2)c(N)n1 [Aminopyrifen] | 0.2220 µg/mL (≈ 0.664 µM) | – | –
2 | COc1ccnc(C(=O)N[C@@H](C)C(=O)O[C@@H](C)C(c2ccc(F)cc2)c2ccc(F)cc2)c1OC(C)=O [Florylpicoxamid] | 0.0022 µg/mL (≈ 0.00429 µM) | – | –
3 | O=[N+]([O-])c1cc(C(F)(F)F)c(Cl)c([N+](=O)[O-])c1Nc1ncc(C(F)(F)F)cc1Cl [Fluazinam] | – | 30.50% | EC50 ([1]; Zymoseptoria tritici, 120 h, read-out: EC50 observed): 0.257 µg/mL (≈ 0.552 µM); EC50 ([2]; Phytophthora infestans, 120 h, read-out: EC50 observed): 0.528 µg/mL (≈ 1.14 µM)
4 | Cn1cc(C(=O)Nc2ccccc2Oc2ccc(C(F)(F)F)cc2Cl)c(C(F)F)n1 [Flubeneteram] | 0.1221 µg/mL (≈ 0.274 µM) | – | –
5 | Cn1cc(C(=O)Nc2ccccc2-c2cc(F)c(F)c(F)c2)c(C(F)F)n1 [Fluxapyroxad] | – | 27.50% | Observed % control (O) ([3]; Fluxapyroxad 90 g/ha, mixture 350 + 90 g/ha): 43.80%
6 | Cn1nnnc1/C(=N\OCc1cccc(NC(=O)OC(C)(C)C)n1)c1ccccc1 [Picarbutrazox] | – | – | EC50 observed ([2]; single active ingredient, OD 590 nm after 5 days at 19° C.): 0.0026 µg/mL (≈ 0.00635 µM)
